Here are results for two compounds from EP4733297A1, “INTEGRIN-INHIBITING SMALL MOLECULE COMPOUND” (Antibody Therapeutics, Inc., priority 2023, dated 2024).

Test [1] has as its system rat lung-derived fibroblasts. In words: Differentiation of fibroblasts into myofibroblasts, α-SMA western blotting. To be noted: TGFβ stimulation 96 hours. The class given is cell-based. As to the method:
In this Example, the effect of IBF-17, which is a compound of the present invention, on differentiation of fibroblasts into myofibroblasts was examined. The medium was replaced with a serum-free medium, and rat lung-derived fibroblasts isolated in Example 2 were cultured for 24 hours. After culturing, IBF-17 was added so as to give final concentrations of 2, 20 nM, or 200 nM, and C8 was added so as to give final concentrations of 2, 20, or 200 nM, followed by reaction for 2 hours. After the reaction, recombinant human TGFβ1 was added so as to give a final concentration of 5 ng/mL, and stimulation was carried out for 96 hours to induce differentiation into myofibroblasts. After induction of differentiation, protein was extracted from the cells and western blotting was performed, a band of α-SMA, which is a differentiation marker, was detected, and the band was quantified as a relative band intensity with respect to glyceraldehyde-3-phosphate dehydrogenase (GAPDH), which is a control.
From this Example, differentiation of fibroblasts into myofibroblasts (by […] TGFβ) was evaluated using α-smooth muscle actin as marker.
In general terms: In western blotting, separated proteins are transferred to a membrane and probed.

For test [2], the system named is carbon tetrachloride (CCl4) administration model. Briefly: 3-day administration experiment in carbon tetrachloride (CCl4) administration model. It counts as in vivo, mice. To be noted: liver, 72 hours after CCl4; subcutaneous 1 mg/kg twice per day. As to the method:
In this Example, carbon tetrachloride (CCl4) for inducing fibrosis in the liver was administered once to mice, and thereafter, the compound of the present invention (IBF-17) was administered for 3 days, and then the liver was collected and observed. More specifically, carbon tetrachloride (diluted 4-fold with olive oil) was intraperitoneally administered once at 2 mL/kg to mice that had been fasted for half a day from the day before the test. IBF-17 was subcutaneously administered daily at 1 mg/kg twice per day (with an interval of 8 hours), including the day of carbon tetrachloride administration. At 72 hours after carbon tetrachloride administration, the mice were dissected and the liver was collected, and expression of fibrosis marker genes (Acta2, Col1a1, Col3a1, Tgfb1, Loxl1, and Ddr2) was analyzed by qPCR.

Test [3] deals with bleomycin administration model. In words: 10-day administration experiment in bleomycin administration model. To be noted: oral 5 mg/kg twice per day, 5 days per week, from 1 week after bleomycin. The class given is in vivo, mice. As to the method: In this Example, to mice administered with bleomycin for inducing fibrosis in the lung, the compound of the present invention (IBF-17) was administered for a total of 10 days over a period of 2 weeks from 1 week after bleomycin administration, and the state of tissue fibrosis was observed.
Specifically, under deep anesthesia, the neck of mice was incised, bleomycin (diluted with physiological saline) was intratracheally administered once at 1.5 U/kg, and the neck was sutured. From 1 week after bleomycin administration (the time when fibrosis begins to occur), IBF-17 was orally administered at 5 mg/kg twice per day (with an interval of 8 hours) for 5 days per week (Monday to Friday). After completion of the experiment, the lung was collected and expression of fibrosis-related genes (Acta2, Col1a1, Col3a1, and Tnc) was analyzed by qPCR. Further, lung sections were prepared, collagen was stained by Masson-trichrome staining, and the fibrotic area was quantified.

Another test deals with NASH model. Briefly: 8-week administration experiment in NASH model (CDAHFD diet). It counts as in vivo, mice. To be noted: oral, 8 weeks. As to the method: In this Example, over a period of 8 weeks, while providing mice with CDAHFD (choline-deficient amino acid-restricted high-fat diet), compounds of the present invention (IBF-17, IBF-18, and IBF-20) were administered, and the state of tissue fibrosis was observed. More specifically, mice were fed with a special diet CDAHFD (Research Diets) for inducing a human NASH-like pathological condition for a total of 8 weeks, replacing with new diet twice per week (for example, Monday and Friday, or Tuesday and Friday). Throughout the entire test period, IBF-17, IBF-18, or IBF-20 was orally administered daily at 1, 3, or 10 mg/kg twice per day (with an interval of 8 hours). After completion of the experiment, the amount of collagen in the liver was quantified by hydroxyproline measurement, and, for IBF-17, in addition to staining specimens with Sirius red, which specifically stains collagen, to quantify the fibrotic area, expression of genes regarded as fibrosis markers (Acta2, Col1a1, and Timp-1) was analyzed by qPCR. In addition, body weight of each mouse during the feeding period (CDAHFD temporarily decreases at the initial stage of feeding) was measured, and the weight of the collected liver was measured.

Test [4] relates to unilateral ureteral obstruction (UUO) model. In words: 10-day administration experiment in unilateral ureteral obstruction (UUO) model. It counts as in vivo, mice. The settings on record: kidney, 10 days after ligation; subcutaneous 1 or 5 mg/kg twice per day for 9 days. Here is the method: In this Example, over a period of 10 days, the compound of the present invention (IBF-17) was administered to mice in which the ureter on one side was ligated, and the state of tissue fibrosis was observed. More specifically, mice under deep anesthesia were laparotomized, and two sites of the left ureter were ligated using a nylon thread, and the abdomen was sutured. From 1 day after ligation, IBF-17 was subcutaneously administered daily at 1 or 5 mg/kg twice per day (with an interval of 8 hours) for 9 days. At 10 days after ligation, the kidney was collected and expression of genes regarded as fibrosis markers (Acta2, Col1a1, Col3a1, Ddr2, Tgfb1, Tnc, Trpc6, and Loxl1) was analyzed by qPCR.

For test [5], the system named is TGFβ activation by integrin expressed in lung fibroblasts. Briefly: Effect on TGFβ activation: luciferase reporter coculture of lung fibroblasts and CCL64 reporter cells. The class given is cell-based, male Wistar rats. As to the method:
In this Example, lung fibroblasts were used as integrin-expressing cells, and the effect of IBF-17, which is a compound of the present invention, on TGFβ activity was examined. Fibroblasts isolated from lungs of male Wistar rats and cultured for 7 days were seeded at 2×10^3 cells per well and incubated for 5 days. After 5 days, IBF-17 or C8 (a known αvβ1 inhibitor) was added so as to give final concentrations of 2, 20, or 200 nM, and 2 hours thereafter, TGFβ-responsive luciferase-producing reporter cells CCL64 were seeded at 2×10^4 cells and cocultured for 18 hours. After that, the cells were lysed, luciferase assay reagent (Promega Corporation) was added, and luciferase activity was measured using a luminometer. The structure of C8, which is a known αvβ1 inhibitor, is as follows. [drawing 43]
On the technique in general: A reporter such as luciferase makes a cellular process visible.

Test [6] concerns carbon tetrachloride (CCl4) administration model. In words: 8-week administration experiment in carbon tetrachloride (CCl4) administration model. The class given is in vivo, mice. The settings on record: oral, 8 weeks. Here is the method:
In this Example, over a period of 8 weeks, carbon tetrachloride (CCl4) for inducing fibrosis in the liver and compounds of the present invention (IBF-17, IBF-18, and IBF-20) were administered to mice, and the state of tissue fibrosis was observed.
To mice, carbon tetrachloride (diluted 4-fold with olive oil) was intraperitoneally administered at 1 mL/kg twice per week (for example, Monday and Friday, or Tuesday and Friday) for a total of 8 weeks. Throughout the entire test period, IBF-17, IBF-18, or IBF-20 was orally administered daily at 1 or 10 mg/kg twice per day (with an interval of 8 hours). After completion of the experiment, the liver was collected, and the amount of collagen was quantified by hydroxyproline measurement, and a specimen was stained with Sirius red to quantify the fibrotic area. In addition, expression of fibrosis markers, Col1a1 and Acta2 (α-SMA) genes, was analyzed by qPCR.

Test [7] has the same test system. In words: 15-day administration experiment in carbon tetrachloride (CCl4) administration model (therapeutic). The settings on record: oral 5 mg/kg twice per day, 5 days per week, from week 4 of 6 weeks of CCl4. It counts as in vivo, mice. Here is the method:
In this Example, over a period of 6 weeks, carbon tetrachloride (CCl4) for inducing fibrosis in the liver was administered to mice, and the compound of the present invention (IBF-17) was administered for a total of 15 days over 3 weeks in the latter half of the test, and the state of tissue fibrosis was observed. While Example 4 is examination of a prophylactic effect in which the compound is administered from the start of the test, this Example is examination of a therapeutic effect in which the compound is administered after 3 weeks have passed since administration of carbon tetrachloride (in a state where liver fibrosis has occurred). Specifically, to mice, carbon tetrachloride (diluted 4-fold with olive oil) was intraperitoneally administered at 1 mL/kg twice per week (for example, Monday and Friday, or Tuesday and Friday) for a total of 6 weeks. From week 4 of the start of the test, IBF-17 was orally administered at 5 mg/kg twice per day (with an interval of 8 hours) for 5 days per week (Monday to Friday). After completion of the experiment, the liver was collected and the amount of collagen was quantified by hydroxyproline measurement.

Another test deals with interstitial pneumonia. The settings on record: reported July 2022; cited from earlier work.
Setting [8] is: liver, 1 or 10 mg/kg twice per day.

In the case of `O=C(O)C[C@H](NC(=O)CNC(=O)c1cc(O)cc(NC2=NCC(F)CN2)c1)c1cccc(S(F)(F)(F)(F)F)c1` (stereo partly drawn) [IBF-17, (3S)-3-(2-{3-[(5-fluoro-1,4,5,6-tetrahydropyrimidin-2-yl)amino]-5-hydroxybenzamido}acetamido)-3-[3-(pentafluorosulfanyl)phenyl]propanoic acid], the “inhibition of differentiation of fibroblasts into myofibroblasts (α-SMA band intensity)” value in test [1] (2 nM) is recorded as “inhibition of differentiation was observed”. The inhibition (commonly the drop in the measured response relative to a control, in per cent) at 0.02 µM in test [1] (Rattus norvegicus, Fibroblast, 20 nM, read-out: inhibition of differentiation of fibroblasts into myofibroblasts (α-SMA band intensity)) is at least 80%. Besides, in [2], the “mRNA expression of Col1a1 (qPCR)” value is given as “clearly decreased”; the “mRNA expression of Col3a1 (qPCR)” value is on record as “clearly decreased”; the “mRNA expression of six fibrosis markers (Acta2, Col1a1, Col3a1, Tgfb1, Loxl1, Ddr2) (qPCR)” value is listed as “all of these markers were decreased”. Moreover, in test [3] (lung), the “mRNA expression of Col1a1 (qPCR)” value is on record as “significantly decreased” and the “mRNA expression of Col3a1 (qPCR)” value was “significantly decreased”. The “fibrotic area of lung (Masson-trichrome staining)” value in test [3] is “significantly decreased”. In addition, the “hydroxyproline amount of liver tissue” value with NASH model (any dose (1, 3, and 10 mg/kg) twice per day, versus no administration) is on record as “decreases in hydroxyproline amount were observed”. Besides, in the test with NASH model (any of 1, 3, and 10 mg/kg twice per day), the “mRNA expression of fibrosis markers (Acta2, Col1a1, Timp-1) (qPCR)” value was “uniformly decreased fibrosis markers”. For the same compound, the “fibrotic area in tissue specimens (Sirius red)” value in the test on NASH model (any of 1, 3, and 10 mg/kg twice per day, versus non-administration group) was “reduced the fibrotic area”. For the same compound, in test [4], the “mRNA expression of Acta2 (qPCR)” value is recorded as “decreasing tendency”, the “mRNA expression of Col1a1 (qPCR)” value is on record as “significant decreases”, the “mRNA expression of Col3a1 (qPCR)” value is recorded as “significant decreases” and the “mRNA expression of Ddr2 (qPCR)” value was “significant decreases”. For the same compound, in test [4], the “mRNA expression of Loxl1 (qPCR)” value is recorded as “significant decreases”, the “mRNA expression of Tgfb1 (qPCR)” value was “decreasing tendency”, the “mRNA expression of Tnc (qPCR)” value was “decreasing tendency” and the “mRNA expression of Trpc6 (qPCR)” value is given as “decreasing tendency”. For the same compound, in test [5] (200 nM), the “activation of TGFβ (luciferase activity)” value is “almost completely inhibited”. Besides, the “activation of TGFβ (luciferase activity)” value in test [5] (concentration range of 2 to 200 nM, coculture 18 hours) is given as “suppressed activation of TGFβ in a concentration-dependent manner”. In addition, in test [6] (setting [8]), the “mRNA expression of Acta2 (qPCR)” value is listed as “tends to be decreased” and the “mRNA expression of Col1a1 (qPCR)” value is listed as “tends to be decreased”. For the same compound, the “amount of hydroxyproline in liver tissue” value in [6] (1 mg/kg twice per day) is “showed an effect”. In addition, the “amount of hydroxyproline in liver tissue” value in [6] (1 or 10 mg/kg twice per day) is “decreased the amount of hydroxyproline”. Moreover, in test [6] (both 1 mg/kg and 10 mg/kg twice per day, versus non-administration group, decrease followed the dose), the “Sirius red-stained area of liver tissue” value is on record as “decreased”. Further, the “amount of hydroxyproline in mouse liver” value in test [7] is listed as “significantly decreased”.
On to `COCCN(CCCCc1ccc2c(n1)NCCC2)CC[C@H](Nc1ncnc2ccccc12)C(=O)O` [PLN-74809], for which the “efficacy in early Phase 2a of a clinical trial” value in the test on interstitial pneumonia was “proven efficacy”.
